Assay results as given in PubChem BioAssay (NCI).
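The compound was tested at five concentrations on cells cultured in 96-well plates, with a 48-hour exposure period. Abbreviation: GI50, concentration required for 50% inhibition of growth. The concentration for full growth arrest is given as TGI.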

Legend:
Assay in all cases: NCI anticancer screen, dose series, 48 h
NCI-H23 lung = tested on: NCI-H23 lung
MOLT-4 leukemia = tested on: MOLT-4 leukemia
NCI/ADR-RES ovarian = tested on: NCI/ADR-RES ovarian
RXF 393 renal = tested on: RXF 393 renal
UACC-62 melanoma = tested on: UACC-62 melanoma
SNB-75 CNS = tested on: SNB-75 CNS
BT-549 breast = tested on: BT-549 breast
IGROV1 ovarian = tested on: IGROV1 ovarian
HOP-92 NSCLC = tested on: HOP-92 NSCLC
MDA-MB-468 breast = tested on: MDA-MB-468 breast
MDA-MB-231 breast = tested on: MDA-MB-231 breast
EKVX NSCLC = tested on: EKVX NSCLC
PC-3 prostate = tested on: PC-3 prostate
SK-MEL-5 melanoma = tested on: SK-MEL-5 melanoma
HCC-2998 colon = tested on: HCC-2998 colon
HL-60(TB) leukemia = tested on: HL-60(TB) leukemia
UACC-257 melanoma = tested on: UACC-257 melanoma
MALME-3M melanoma = tested on: MALME-3M melanoma
U251 CNS = tested on: U251 CNS
SNB-19 CNS = tested on: SNB-19 CNS
786-0 renal = tested on: 786-0 renal
A498 renal = tested on: A498 renal
UO-31 renal = tested on: UO-31 renal
SW-620 colon = tested on: SW-620 colon
SK-MEL-2 melanoma = tested on: SK-MEL-2 melanoma
CAKI-1 renal = tested on: CAKI-1 renal
NCI-H522 lung = tested on: NCI-H522 lung
COLO 205 colon = tested on: COLO 205 colon
HOP-62 NSCLC = tested on: HOP-62 NSCLC
SK-MEL-28 melanoma = tested on: SK-MEL-28 melanoma

## Cc1ccc(C(=O)NN2C(=O)/C(=C/C=C/c3ccc([N+](=O)[O-])o3)SC2=S)cc1
NCI-H23 lung
  GI50: 337 nM
  TGI: 1170 nM
MOLT-4 leukemia
  GI50: 294 nM
  TGI: 2670 nM
NCI/ADR-RES ovarian
  GI50: 1220 nM
  TGI: 2880 nM
RXF 393 renal
  GI50: 789 nM
  TGI: 2140 nM
UACC-62 melanoma
  GI50: 378 nM
  TGI: 1210 nM
SNB-75 CNS
  GI50: 1300 nM
  TGI: 3170 nM
BT-549 breast
  GI50: 218 nM
  TGI: 705 nM
IGROV1 ovarian
  GI50: 811 nM
  TGI: 2110 nM
HOP-92 NSCLC
  GI50: 245 nM
  TGI: 893 nM
MDA-MB-468 breast
  GI50: 1500 nM
  TGI: 3120 nM
MDA-MB-231 breast
  GI50: 185 nM
  TGI: 373 nM
EKVX NSCLC
  GI50: 543 nM
  TGI: 1850 nM
PC-3 prostate
  GI50: 1140 nM
  TGI: 3000 nM
SK-MEL-5 melanoma
  GI50: 337 nM
  TGI: 1240 nM
HCC-2998 colon
  GI50: 486 nM
  TGI: 1720 nM
HL-60(TB) leukemia
  GI50: 1880 nM
  TGI: 10500 nM
UACC-257 melanoma
  GI50: 1670 nM
  TGI: 3550 nM
MALME-3M melanoma
  GI50: 177 nM
  TGI: 378 nM
U251 CNS
  GI50: 701 nM
  TGI: 1970 nM
SNB-19 CNS
  GI50: 1610 nM
  TGI: 3010 nM
786-0 renal
  GI50: 451 nM
  TGI: 1620 nM
A498 renal
  GI50: 9160 nM
  TGI: 22900 nM
UO-31 renal
  GI50: 1210 nM
  TGI: 2450 nM
SW-620 colon
  GI50: 181 nM
  TGI: 389 nM
SK-MEL-2 melanoma
  GI50: 283 nM
  TGI: 904 nM
CAKI-1 renal
  GI50: 911 nM
  TGI: 2190 nM
NCI-H522 lung
  GI50: 185 nM
  TGI: 363 nM
COLO 205 colon
  GI50: 348 nM
  TGI: 1070 nM
HOP-62 NSCLC
  GI50: 1600 nM
  TGI: 3120 nM
SK-MEL-28 melanoma
  GI50: 1090 nM
